Test results published in article PMC12301332, “Biased antagonism of a series of bicyclic CXCR2 intracellular allosteric modulators” (Frontiers in Pharmacology, 2025).
Read-outs that look alike come from different tables or passages of the source.

Columns and labels:
[1] = biological target: T1, CXCR2 (Homo sapiens, UniProt P25025); assay: NanoBRET β-arrestin1 recruitment inhibition assay (NanoLux) in HEK293A cells; assay type: cell-based; details: for Imax βarr1 (maximum observed inhibitory effect): normalized to Imax of navarixin = 100%
T1 construct: expressed in transfected cells
T1 sequence (P25025 1-360): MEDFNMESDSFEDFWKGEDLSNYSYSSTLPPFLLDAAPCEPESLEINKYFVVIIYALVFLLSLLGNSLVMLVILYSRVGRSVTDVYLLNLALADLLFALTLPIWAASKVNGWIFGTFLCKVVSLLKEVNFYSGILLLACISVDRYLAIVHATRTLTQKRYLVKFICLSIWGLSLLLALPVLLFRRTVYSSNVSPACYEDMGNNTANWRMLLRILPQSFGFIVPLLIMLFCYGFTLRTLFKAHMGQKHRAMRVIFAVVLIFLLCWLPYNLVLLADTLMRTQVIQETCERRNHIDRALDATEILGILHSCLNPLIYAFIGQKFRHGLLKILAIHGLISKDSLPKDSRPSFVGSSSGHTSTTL
Description: Cells were trypsinized and resuspended at 3 × 10^5 cell/mL in the growth medium, whereafter they were incubated for 2 hours at RT. Cells were transfected in suspension using FuGENE® HD Transfection Reagent at a 3:1 reagent to DNA ratio in Opti-MEMTM I Reduced-Serum Medium, with the final DNA concentration of 1 μg/μL. The transfection mixture was incubated for 10 min at RT before adding it to the cell suspension. Transfected cells were seeded at 3.0 × 10^4 cells/well in a white, clear, flat-bottom 96-well plate coated with 100 μg/mL poly-D-lysin ([…], Sigma Aldrich) and incubated for 48 h at 37°C and 5% CO2. HEK293A cells were transiently co-transfected with plasmids encoding β-arrestin1 protein tagged with NLuc (donor) and CXCR2 protein tagged with mNeonGreen (mNG) acceptor in a 1:10 donor to acceptor ratio, as described previously ([Luís et al., 2022]). All subsequent steps are identical to those in “NanoBRET-based G protein activation inhibition assay,” which are described above. Measurements were acquired using a 440- to 480-nm donor emission filter (#0200-6179, Molecular Devices) and a 515- to 575-nm acceptor emission filter (#0200-6203, Molecular Devices) BRET ratios were extracted from ScreenWorks software (Molecular Devices) and represent the ratio between the acceptor emission of […]2 or mNG (G protein or β-arrestin recruitment, respectively) and NLuc donor emission. The basal BRET ratio was defined as the average BRET ratio of the five consecutive readings preceding ligand addition. Changes in BRET values post ligand administration (ΔBRET) were calculated for each well as a percentage difference to the previously defined basal BRET ratio. Average ΔBRET values were baseline corrected by subtracting the average negative control BRET ratio (unstimulated condition). […] AUCs were normalized to the positive control (stimulated condition); whereafter, dose-response curves were fitted to log (inhibitor) vs response (three parameters) in GraphPad 10.2.0 (GraphPad Software). […] Calculation 1: calculation of the BRET signal. • 1. […] NC correctedΔBRET=Δ[…]. • 4. a. Neg AUC of NC correctedΔBRET=Gα activation read out. b. Pos AUC of NC correctedΔBRET=β-arrestin recruitment.

[2] = biological target: T1, CXCR2; parameters: method as in Van Hoof et al., 2022; details: ref Van Hoof et al., 2022; cited from earlier work
[3] = CXCL1 at EC80, mean, n = 3, read-out: IC50 βarr1
[4] = CXCL2 at EC80, mean, n = 3, read-out: IC50 βarr1
[5] = CXCL3 at EC80, mean, n = 3, read-out: IC50 βarr1
[6] = CXCL5 at EC80, mean, n = 3, read-out: IC50 βarr1
[7] = CXCL6 at EC80, mean, n = 3, read-out: IC50 βarr1
[8] = CXCL7 at EC80, mean, n = 3, read-out: IC50 βarr1
[9] = CXCL8 at EC80, mean, n = 3, read-out: IC50 βarr1

IC50 [1, 3] | Imax βarr1 (maximum observed inhibitory effect) ([1]; CXCL1 at EC80, n = 3) | IC50 [1, 4] | Imax βarr1 (maximum observed inhibitory effect) ([1]; CXCL2 at EC80, n = 3) | IC50 [1, 5] | Imax βarr1 (maximum observed inhibitory effect) ([1]; CXCL3 at EC80, n = 3) | IC50 [1, 6] | Imax βarr1 (maximum observed inhibitory effect) ([1]; CXCL5 at EC80, n = 3) | IC50 [1, 7] | Imax βarr1 (maximum observed inhibitory effect) ([1]; CXCL6 at EC80, n = 3) | IC50 [1, 8] | Imax βarr1 (maximum observed inhibitory effect) ([1]; CXCL7 at EC80, n = 3) | IC50 [1, 9] | Imax βarr1 (maximum observed inhibitory effect) ([1]; CXCL8 at EC80, n = 3) | IC50 ([1]; range across ELR+ chemokines, read-out: IC50 β-arrestin1 recruitment inhibition) | SMILES | calcium mobilization antagonism [2]
1.46 ± 0.58 µM | 98.15 ± 4.28% | 0.66 ± 0.21 µM | 92.98 ± 2.58% | 1.53 ± 0.26 µM | 96.91 ± 2.10% | 1.12 ± 0.26 µM | 100% | 0.79 ± 0.37 µM | 93.68 ± 7.03% | 0.34 ± 0.13 µM | 100% | 1.51 ± 1.01 µM | 100% | – | CC(CCO)Nc1nc(SCc2cccc(F)c2F)nc2[nH]nnc12 (stereo not drawn) [MVH-33] | –
0.98 ± 0.18 µM | 100% | 0.58 ± 0.17 µM | 100% | 1.59 ± 0.43 µM | 100% | 0.84 ± 0.16 µM | 100% | 0.7 ± 0.17 µM | 100% | 0.16 ± 0.05 µM | 95.75 ± 3.49% | 1.34 ± 0.45 µM | 90.8 ± 4.62% | – | CC(CO)Nc1nc(SCc2cccc(F)c2F)nc2cnccc12 (stereo not drawn) [MVH-3] | potent
0.17 ± 0.06 µM | 100% | 0.08 ± 0.04 µM | 100% | 0.14 ± 0.05 µM | 99.42 ± 0.85% | 0.09 ± 0.03 µM | 100% | 0.07 ± 0.02 µM | 100% | 0.03 ± 0.01 µM | 100% | 0.15 ± 0.04 µM | 100% | 0.03 to 0.17 µM | CC(CO)Nc1nc(SCc2cccc(F)c2F)nc2oncc12 (stereo not drawn) [MVH-24] | most potent
